According to US7825104B2, “Methods and compositions for treating fungal infections” (Ramot at Tel Aviv University Ltd., priority 2001, dated 2010):

What was measured:
[1] = ORL-RAT; cited from earlier work
[2] = test system: Candida parapsilosis; experiment: in vitro fungicidal/inhibitory effect on Candida parapsilosis; format: cell-based
[3] = test system: Bacilus megaterium; experiment: in vitro effect on Bacillus megaterium (control, Cyt P-450 containing bacteria); format: cell-based; conditions: solution of about 5-10 mg/ml
[4] = test system: Trichophyton rubrum; experiment: in vitro fungicidal/fungistatic test on T. rubrum cultures; format: cell-based; conditions: concentration range of 5-10 mg/ml tested
Experimental: An in vitro test was designed for testing the fungicidal or fungistatic activity of PBA and its water-soluble derivatives. Cultures of T. rubrum were grown on 100 microliters SDB agar in a standard 96 well plate. Following an initial growth period of about 24 hours, each well was treated with 50-100 microliters of the reagent tested. Following an appropriate incubation period with or without washing, residual viability was estimated from comparison with appropriate controls, followed by secondary verification of viability tests by transfer of a part of the treated culture into a fresh well for optional recovery and growth. […] The photograph was taken four days after treatment.

[5] = cited from earlier work

OB(O)c1ccccc1 [PBA, Phenyl boronic acid]
LD50 [1]: 740 mg/kg | effect on C. parapsylosis ([2]; 5 mg/ml): fungistatic | effect on C. parapsylosis ([2]; 10 mg/ml): fungicidal | activity against Bacillus megaterium [3]: antibiotic activity | effect on T. rubrum [4]: fungicidal | solubility in water [5]: reasonably soluble in water
